We go through 1 compound from article PMC8053125 (2021).

Assay [1] relates to A (CFX aptamer A) (RNA, aptamer) GGGAGACGCAACAGACUAGGUUGUGACUGCUUAGGCAGUUGUGGACGGCUAAGCCCACCAGAGGUCCGUAACUAGUCGCGUCAC
Briefly: stopped-flow fluorescence, global fit. The settings on record: K+ 125 mM, Mg2+ 5 mM; 40 mM HEPES, pH 7.4; association rate, reversible two-step model 4; k-1 1.6±0.2, k2 4±0.2, k-2 2.3±0.2 s^-1.

Assay [2] deals with RS (RNA, aptamer) GGGAGACGCACCUGAAUCAACAUACGUGAACGCGACUCUAUCUCCCCAAAUUAGGCGUCAGAUAGCGGCACGGAGUUACACGAUCCGUAACUAGUCGCGUCAC
Briefly: stopped-flow fluorescence, global fit. The settings on record: K+ 125 mM, Mg2+ 5 mM; 40 mM HEPES, pH 7.4; association rate, two-step model 5; k-1 2.9±0.7, k2 23±1 s^-1.

The subject of assay [3] is A (CFX aptamer A) (RNA, aptamer) GGGAGACGCAACAGACUAGGUUGUGACUGCUUAGGCAGUUGUGGACGGCUAAGCCCACCAGAGGUCCGUAACUAGUCGCGUCAC
Briefly: fluorescence titration (ligand quenching). Conditions: K+ 125 mM, Mg2+ 10 mM; 40 mM HEPES, pH 7.4, 25 °C; 50 nM CFX; Mg2+ series.

For assay [4], the system named is preRS (RNA, aptamer) GGGAGACGCAACUGAAUGAACAUAAGUGAACGCGACUCUAUCUCCCUAAACUAGGAGUCAUAUAGCGGCACGGAGUUACACGAUCCGUAACUAGUCGCGUCAC
Briefly: stopped-flow fluorescence, global fit. Conditions: K+ 125 mM, Mg2+ 5 mM; 40 mM HEPES, pH 7.4; association rate, two-step model 5; k-1 5.4±0.4, k2 12.1±0.7 s^-1.

Regarding `O=C(O)c1cn(C2CC2)c2cc(N3CCNCC3)c(F)cc2c1=O`, the k1 in assay [1] came out at 10 ± 0.2 µM/s; in assay [2], 7.62 ± 0.11 µM/s; in assay [4], 4.31 ± 0.06 µM/s. Also, the KD in assay [3] is reported as ~ 13 nM.
